Experimental data: ChEMBL document CHEMBL5370609, “Amidine-Based Cationic Conjugated Oligoelectrolytes with Antimicrobial Activity against Pseudomonas aeruginosa Biofilms” (J Med Chem, 2023)
Values after ≈ are worked out from the molar mass of the structure shown. Active and inactive are the calls of the source. No cut-off for these calls is given here.

Tests used:
Escherichia coli = test: Antibacterial activity against Escherichia coli ATCC 25922 assessed as inhibition of bacterial growth incubated for overnight by broth microdilution method; format: functional
Staphylococcus aureus = test: Antibacterial activity against Staphylococcus aureus ATCC 29213 assessed as inhibition of bacterial growth incubated overnight by broth microdilution method; format: functional
Klebsiella pneumoniae = test: Antibacterial activity against Klebsiella pneumoniae ATCC 700603 assessed as inhibition of bacterial growth incubated overnight by broth microdilution method; format: functional
Pseudomonas aeruginosa [1] = test: Antibacterial activity against Pseudomonas aeruginosa ATCC 27853 assessed as inhibition of bacterial growth incubated overnight by broth microdilution method; format: functional
[2] = Cytotoxicity against human HepG2 cells assessed as reduction in cell viability incubated for 24 hrs by MTT assay; format: toxicity, cell-based
[3] = Selectivity index, IC50 for cytotoxicity against human HepG2 cells to MIC for antibacterial activity against Pseudomonas aeruginosa ATCC 27853 assessed as inhibition of bacterial growth; format: toxicity, cell-based; settings: read-out: Selectivity Index
Pseudomonas aeruginosa [4] = test: Inhibition of biofilm formation in Pseudomonas aeruginosa PAO1 at below MIC incubated for 24 hrs by crystal violet staining based analysis; format: functional, organism-based
Pseudomonas aeruginosa [5] = test: Inhibition of biofilm formation in Pseudomonas aeruginosa PAO1 incubated for 24 hrs by crystal violet staining based analysis; format: functional
Pseudomonas aeruginosa [6] = test: Antibiofilm activity against preformed biofilm in Pseudomonas aeruginosa PAO1 assessed as reduction in biofilm viability upto 1024 ug/ml incubated for 24 hrs by BacTiter Glo reagent based luminescence analysis; format: functional, organism-based; settings: dose <= 1024.0 µg/ml
Pseudomonas aeruginosa [7] = test: Antibacterial activity against Pseudomonas aeruginosa PAO1 assessed as inhibition of bacterial growth incubated overnight by broth microdilution method; format: functional
Pseudomonas aeruginosa [8] = test: Antibiofilm activity in Pseudomonas aeruginosa PAO1 assessed as eradication of preformed biofilm at 64 to 128 ug/ml incubated for 24 hr by BacTiter Glo reagent based luminescence analysis; format: functional, organism-based; settings: dose 64-128 µg/ml
Pseudomonas aeruginosa [9] = test: Bactericidal activity against Pseudomonas aeruginosa PAO1 assessed as reduction in viable bacteria at 4 times of MIC measured after 4 to 8 hrs by time-kill kinetics assay; format: functional, organism-based; settings: time 4-8 hrs
Pseudomonas aeruginosa [10] = test: Induction of resistance development in Pseudomonas aeruginosa PAO1 assessed as fold increase in MIC measured after consecutive passages for 21 days by serial passaging assay relative to day 1 MIC; format: functional; settings: time 21 day
Pseudomonas aeruginosa [11] = test: Induction of spontaneous resistance development in Pseudomonas aeruginosa PAO1 assessed as frequency of resistance at 2 to 4 times of MIC incubated for 48 hrs by FoR assay; format: functional
Pseudomonas aeruginosa [12] = test: Antibiofilm activity against preformed biofilm in Pseudomonas aeruginosa PAO1 assessed as bacteria killing at 1024 ug/ml incubated for 24 hrs by BacTiter Glo reagent based luminescence analysis; format: functional, organism-based; settings: dose 1024.0 µg/ml
HEK293 = test: Cytotoxicity against HEK293 cells assessed as reduction in cell viability incubated for 24 hrs by CellTiter-Glo reagent based luminescence assay; format: toxicity; settings: human, hek293, 24 h
NIH3T3 = test: Cytotoxicity against mouse 3T3 cells assessed as reduction in cell viability incubated for 24 hrs by CellTiter-Glo reagent based luminescence assay; format: toxicity; settings: nih3t3, 24 h
[13] = Hemolytic activity in human blood assessed as hemolysis at 492 ug/ml incubated for 45 mins by absorbance based plate reader analysis relative to control; format: toxicity, tissue-based; settings: at 492 µg/mL, read-out: Activity
[14] = Dissociation constant, pKa of compound at pH 7.4 by potentiometric titration method; format: physicochemical
Pseudomonas aeruginosa [15] = test: Bactericidal activity against Pseudomonas aeruginosa PAO1 assessed as reduction in colony forming units at 4 times of MIC incubated for 1 hrs by time-kill kinetics assay relative to control; format: functional; parameters: scale not given: the % may be the effect or the level left
Pseudomonas aeruginosa [16] = test: Bactericidal activity against Pseudomonas aeruginosa PAO1 assessed as log reduction in colony forming units at 4 times of MIC incubated for 1 hrs by time-kill kinetics assay; format: functional
Pseudomonas aeruginosa [17] = test: Bactericidal activity against Pseudomonas aeruginosa PAO1 assessed as reduction in viable bacteria at 4 times of MIC measured at 8 to 48 hrs by time-kill kinetics assay; format: functional, organism-based; settings: time 8-48 hrs
Pseudomonas aeruginosa [18] = test: Bactericidal activity against Pseudomonas aeruginosa PAO1 assessed as bacterial eradication at 8 times of MIC measured at 8 hrs by time-kill kinetics assay relative to control; format: functional
Pseudomonas aeruginosa [19] = test: Bactericidal activity against Pseudomonas aeruginosa PAO1 assessed as reduction in bacterial growth at 8 times of MIC measured after 48 hrs by time-kill kinetics assay; format: functional, organism-based
Pseudomonas aeruginosa [20] = test: Inhibition of biofilm formation in Pseudomonas aeruginosa PAO1 at below MIC incubated for 24 hrs by crystal violet staining based analysis relative to control; format: functional
Pseudomonas aeruginosa [21] = test: Antibiofilm activity against preformed biofilm in Pseudomonas aeruginosa PAO1 assessed as biofilm killing at 128 ug/ml incubated for 24 hrs by BacTiter Glo reagent based luminescence analysis; format: functional, organism-based; settings: dose 128.0 µg/ml
Pseudomonas aeruginosa [22] = test: Antibiofilm activity in Pseudomonas aeruginosa PAO1 assessed as eradication of preformed biofilm at 256 ug/ml incubated for 24 hr by BacTiter Glo reagent based luminescence analysis; format: functional, organism-based; settings: dose 256.0 µg/ml
Pseudomonas aeruginosa [23] = test: Antibacterial activity against Pseudomonas aeruginosa PAO1 infected in C57BL/6 mouse wound model assessed as reduction in bacterial count on wound bed pre-infected with bacteria for 4 hrs followed by topical administration of compounds for 20 hrs and measured 24 hrs post infection; format: functional, organism-based; settings: dose 0.1-2 %
Pseudomonas aeruginosa [24] = test: Antibacterial activity against Pseudomonas aeruginosa PAO1 infected in C57BL/6 mouse wound model assessed as log reduction in colony forming unit on wound bed at 0.5 % w/v pre-infected with bacteria for 4 hrs followed by topical administration of compounds for 20 hrs and measured 24 hrs post infection; format: functional
Pseudomonas aeruginosa [25] = test: Antibacterial activity against Pseudomonas aeruginosa PAO1 infected in C57BL/6 mouse wound model assessed as log reduction in colony forming unit on wound bed at 2 % w/v pre-infected with bacteria for 4 hrs followed by topical administration of compounds for 20 hrs and measured 24 hrs post infection; format: functional
Pseudomonas aeruginosa [26] = test: Antibacterial activity against Pseudomonas aeruginosa PAO1 infected in C57BL/6 mouse wound model assessed as reduction in bacterial count on wound bed at 2 to 8 % w/v pre-infected with bacteria for 24 hrs followed by topical administration of compounds for 24 hrs; format: functional, organism-based; settings: dose 2-8 %

CC(=O)O.CC(=O)O.CC(=O)O.CC(=O)O.N=C(CC1CC1)NCCCOc1cc(/C=C/c2ccc(/C=C/c3cc(OCCCNC(=N)CC4CC4)cc(OCCCNC(=N)CC4CC4)c3)cc2)cc(OCCCNC(=N)CC2CC2)c1
MIC (Escherichia coli): 2 µg/mL
MIC (Staphylococcus aureus): 1 µg/mL
MIC (Klebsiella pneumoniae): 4 µg/mL
MIC (Pseudomonas aeruginosa [1]): 8 µg/mL
IC50 at 24 h [2]: 256 µg/mL
selectivity ratio [3]: 32

CC(=O)O.CC(=O)O.CC(=O)O.CC(=O)O.CN(CCCOc1cc(/C=C/c2ccc(/C=C/c3cc(OCCCN(C)C(=N)C4CC4)cc(OCCCN(C)C(=N)C4CC4)c3)cc2)cc(OCCCN(C)C(=N)C2CC2)c1)C(=N)C1CC1
MIC (Escherichia coli): 1 µg/mL
MIC (Staphylococcus aureus): 1 µg/mL
MIC (Klebsiella pneumoniae): 8 µg/mL
MIC (Pseudomonas aeruginosa [1]): 8 µg/mL
IC50 at 24 h [2]: 1020 µg/mL
selectivity ratio [3]: 128

CC(=O)O.CC(=O)O.CC(=O)O.CC(=O)O.CCC(=N)N(CCCOc1cc(/C=C/c2ccc(/C=C/c3cc(OCCCN(C(=N)CC)C4CC4)cc(OCCCN(C(=N)CC)C4CC4)c3)cc2)cc(OCCCN(C(=N)CC)C2CC2)c1)C1CC1
MIC (Escherichia coli): 2 µg/mL
MIC (Staphylococcus aureus): 1 µg/mL
MIC (Klebsiella pneumoniae): 8 µg/mL
MIC (Pseudomonas aeruginosa [1]): 16 µg/mL
IC50 at 24 h [2]: 128 µg/mL
selectivity ratio [3]: 8

C/N=C(/C)NCCCOc1cc(/C=C/c2ccc(/C=C/c3cc(OCCCN/C(C)=N\C)cc(OCCCN/C(C)=N/C)c3)cc2)cc(OCCCN/C(C)=N/C)c1.CC(=O)O.CC(=O)O.CC(=O)O.CC(=O)O
MIC (Escherichia coli): 2 µg/mL
MIC (Staphylococcus aureus): 1 µg/mL
MIC (Klebsiella pneumoniae): 16 µg/mL
MIC (Pseudomonas aeruginosa [1]): 32 µg/mL
IC50 at 24 h [2]: > 1020 µg/mL
selectivity ratio [3]: > 32

O=C(O)c1cn(C2CC2)c2cc(N3CCNCC3)c(F)cc2c1=O [CIPROFLOXACIN]
inhibition (Pseudomonas aeruginosa [4]): inactive
MBIC50 (Pseudomonas aeruginosa [5]): 2 µg/mL
MBIC90 (Pseudomonas aeruginosa [5]): 2 µg/mL
Activity (Pseudomonas aeruginosa [6]): inactive

CC(=O)O.CC(=O)O.CC(=O)O.CC(=O)O.CCCN(CCCOc1cc(/C=C/c2ccc(/C=C/c3cc(OCCCN(CCC)C(=N)CC)cc(OCCCN(CCC)C(=N)CC)c3)cc2)cc(OCCCN(CCC)C(=N)CC)c1)C(=N)CC
MIC (Escherichia coli): 2 µg/mL
MIC (Staphylococcus aureus): 1 µg/mL
MIC (Klebsiella pneumoniae): 8 µg/mL
MIC (Pseudomonas aeruginosa [1]): 16 µg/mL
IC50 at 24 h [2]: 32 µg/mL
selectivity ratio [3]: 2

CC(=O)O.CC(=O)O.CC(=O)O.CC(=O)O.CCC(=N)NCCCOc1cc(/C=C/c2ccc(/C=C/c3cc(OCCCNC(=N)CC)cc(OCCCNC(=N)CC)c3)cc2)cc(OCCCNC(=N)CC)c1
MIC (Escherichia coli): 1 µg/mL
MIC (Staphylococcus aureus): 1 µg/mL
MIC (Klebsiella pneumoniae): 8 µg/mL
MIC (Pseudomonas aeruginosa [1]): 8 µg/mL
IC50 at 24 h [2]: 1020 µg/mL
selectivity ratio [3]: 128

C(=C\c1cc(OCCCNC2=NCCC2)cc(OCCCNC2=NCCC2)c1)/c1ccc(/C=C/c2cc(OCCCNC3=NCCC3)cc(OCCCNC3=NCCC3)c2)cc1.CC(=O)O.CC(=O)O.CC(=O)O.CC(=O)O
MIC (Escherichia coli): 2 µg/mL
MIC (Staphylococcus aureus): 1 µg/mL
MIC (Klebsiella pneumoniae): 16 µg/mL
MIC (Pseudomonas aeruginosa [1]): 16 µg/mL
IC50 at 24 h [2]: 1020 µg/mL
selectivity ratio [3]: 64

CC(=O)O.CC(=O)O.CC(=O)O.CC(=O)O.CCCN(CCCOc1cc(/C=C/c2ccc(/C=C/c3cc(OCCCN(CCC)C(=N)C4CC4)cc(OCCCN(CCC)C(=N)C4CC4)c3)cc2)cc(OCCCN(CCC)C(=N)C2CC2)c1)C(=N)C1CC1
MIC (Staphylococcus aureus): 1 µg/mL
IC50 at 24 h [2]: 16 µg/mL
selectivity ratio [3]: 0.5

POLYMYXIN B
MIC (Pseudomonas aeruginosa [7]): 2 µg/mL
inhibition (Pseudomonas aeruginosa [4]): inactive
MBIC50 (Pseudomonas aeruginosa [5]): 2 µg/mL
MBIC90 (Pseudomonas aeruginosa [5]): 2 µg/mL
Activity (Pseudomonas aeruginosa [8]): 100%

COLISTIN
MIC (Escherichia coli): 2 µg/mL
MIC (Klebsiella pneumoniae): 2 µg/mL
MIC (Pseudomonas aeruginosa [1]): 2 µg/mL

NC[C@H]1O[C@H](O[C@H]2[C@H](O)[C@@H](O[C@H]3O[C@H](CO)[C@@H](O)[C@H](N)[C@H]3O)[C@H](N)C[C@@H]2N)[C@H](N)C[C@@H]1O [TOBRAMYCIN]
MIC (Pseudomonas aeruginosa [7]): 0.5 µg/mL (≈ 1.07 µM)
Activity (Pseudomonas aeruginosa [9]): inactive
fold change (FC) (Pseudomonas aeruginosa [10]): 64
Activity (Pseudomonas aeruginosa [11]): Active
inhibition (Pseudomonas aeruginosa [4]): inactive
MBIC50 (Pseudomonas aeruginosa [5]): 0.5 µg/mL
MBIC90 (Pseudomonas aeruginosa [5]): 0.5 µg/mL
Activity (Pseudomonas aeruginosa [12]): Active

CC(=O)O.CC(=O)O.CC(=O)O.CC(=O)O.N=C(NCCCOc1cc(/C=C/c2ccc(/C=C/c3cc(OCCCNC(=N)C4CC4)cc(OCCCNC(=N)C4CC4)c3)cc2)cc(OCCCNC(=N)C2CC2)c1)C1CC1
MIC (Staphylococcus aureus): 0.5 µg/mL
IC50 at 24 h [2]: 1020 µg/mL
selectivity ratio [3]: 512
Activity (HEK293): Non-Toxic
Activity (NIH3T3): Non-Toxic
hemolysis at 0.75 h, 492 ug/ml [13]: 0.2%
pKa [14]: 10
MIC (Pseudomonas aeruginosa [7]): 8 µg/mL
Activity (Pseudomonas aeruginosa [15]): 99.9%
log(activity) (Pseudomonas aeruginosa [16]): 3
Activity (Pseudomonas aeruginosa [17]): inactive
Activity (Pseudomonas aeruginosa [18]): 100%
Activity (Pseudomonas aeruginosa [19]): Active
fold change (FC) (Pseudomonas aeruginosa [10]): 4
Activity (Pseudomonas aeruginosa [11]): <1.3 10^-8No_unit
inhibition (INH) (Pseudomonas aeruginosa [20]): ~31%
MBIC50 (Pseudomonas aeruginosa [5]): 1 µg/mL
MBIC90 (Pseudomonas aeruginosa [5]): 4 µg/mL
Activity (Pseudomonas aeruginosa [21]): Active
Activity (Pseudomonas aeruginosa [22]): Active
Activity (Pseudomonas aeruginosa [23]): Dose-Dependent Effect
log(activity) (Pseudomonas aeruginosa [24]): 1.5
log(activity) (Pseudomonas aeruginosa [25]): 2.8
Activity (Pseudomonas aeruginosa [26]): Active

CC(=O)O.CC(=O)O.CC(=O)O.CC(=O)O.CCC(=N)N(C)CCCOc1cc(/C=C/c2ccc(/C=C/c3cc(OCCCN(C)C(=N)CC)cc(OCCCN(C)C(=N)CC)c3)cc2)cc(OCCCN(C)C(=N)CC)c1
MIC (Escherichia coli): 1 µg/mL
MIC (Staphylococcus aureus): 1 µg/mL
MIC (Klebsiella pneumoniae): 16 µg/mL
MIC (Pseudomonas aeruginosa [1]): 8 µg/mL
IC50 at 24 h [2]: > 1020 µg/mL
selectivity ratio [3]: > 128

CC[C@H]1OC(=O)[C@H](C)[C@@H](O[C@H]2C[C@@](C)(OC)[C@@H](O)[C@H](C)O2)[C@H](C)[C@@H](O[C@@H]2O[C@H](C)C[C@H](N(C)C)[C@H]2O)[C@](C)(O)C[C@@H](C)C(=O)[C@H](C)[C@@H](O)[C@]1(C)O [ERYTHROMYCIN]
MIC (Staphylococcus aureus): 0.25 µg/mL (≈ 0.341 µM)
